According to ChEMBL document CHEMBL4819041 (J Med Chem, 2021):

Legend:
Type in all cases: organism-based
Conditions in all cases: in vivo
[1] = Toxicity in Balb/c nude mouse xenografted with human MDA-MB-231 cells assessed as change in body weight at 20 mg/kg, ip QD
[2] = Toxicity in Balb/c nude mouse xenografted with human MDA-MB-231 cells assessed as dose toleration at 20 mg/kg, ip QD
[3] = Toxicity in Balb/c nude mouse xenografted with human MDA-MB-231 cells assessed as normal inquisitiveness at 20 mg/kg, ip QD
[4] = Toxicity in Balb/c nude mouse xenografted with human MDA-MB-231 cells assessed as normal feeding at 20 mg/kg, ip QD
[5] = Toxicity in Balb/c nude mouse xenografted with human MDA-MB-231 cells assessed as adverse effect at 20 mg/kg, ip QD

Measured: Activity

CNCc1ccccc1CN(CC(=O)Nc1ccc2c(c1)CC1(C2)C(=O)Nc2ncccc21)C(=O)C(C)(C)C (stereo not given)
Non-Toxic: all assays above
